Measured values from paper PMC4913896, “Bioactivity-Guided Identification of Botanical Inhibitors of Ketohexokinase” (PLoS ONE, 2016).
Where two headings read alike, the source gives them in different places.

Target: T1, recombinant human KHKC (Homo sapiens, UniProt P50053)
T1 construct: Profinity eXact fusion tag (N, cleaved yes); made in house; host or cells: E. coli BL21 (DE3), vector pPAL8; cDNA from Hep G2 cells
T1 sequence (P50053 1-298): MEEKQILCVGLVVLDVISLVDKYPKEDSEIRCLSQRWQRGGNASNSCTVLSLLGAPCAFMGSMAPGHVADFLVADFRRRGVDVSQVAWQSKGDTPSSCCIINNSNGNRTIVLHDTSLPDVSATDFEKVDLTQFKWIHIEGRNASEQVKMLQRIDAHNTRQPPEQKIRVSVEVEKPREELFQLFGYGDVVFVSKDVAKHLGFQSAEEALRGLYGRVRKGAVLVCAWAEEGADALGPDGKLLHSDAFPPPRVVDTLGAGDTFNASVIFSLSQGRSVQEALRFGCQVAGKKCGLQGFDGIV
Assay: High throughput cell-free recombinant KHKC enzymatic assay (3-step reaction, decrease in NADH at A340nm)
Assay type: biochemical
Conditions: for inhibition at 50 µM: read-out: KHKC Inhibition (%)
Protocol: Botanical extracts and phytochemicals were screened for their inhibitory activity using a high throughput cell-free enzymatic assay that utilized recombinant KHKC. KHKC activity was assayed with a 3-step reaction (Fig 2). The Synergy 2 multi-mode microplate reader was used to measure the decrease in NADH at A340nm (BioTek Instruments, Inc., Winooski, VT). For screening of the botanical extracts and phytochemicals, the KHKC enzymatic assay was carried out at 37°C in a total reaction volume of 200 ul containing 50 mM PIPES, 6 mM MgCl2, 100 mM KCl, 5 mM ATP, 2 mM phosphoenolpyruvate, 0.3 mM NADH, 15 U of pyruvate kinase, 15 U of lactate dehydrogenase, and 75 ng KHKC. The botanical extracts (50 μg/mL) and phytochemicals (50 μM) were preincubated in the reaction mixture for 15 min at 37°C. Afterwards, 1 mM fructose was added to the reactions, except for the no fructose controls, and A340nm data were collected every minute for 1 hr. The changes in absorbance were calculated for all samples based on the linear phase of the reactions and adjusted for the no fructose controls. Compared to the fructose only controls (1 mM fructose, no inhibitors), percentage inhibition of KHKC for each sample was calculated. […] For phytochemicals that inhibited KHKC by at least 40%, dose responses were conducted from 0.05 to 100 μM. IC50s against KHKC were calculated. 4-(hydroxymercuri) benzoic acid sodium salt was used as a positive inhibitory control of KHKC [36]. All chemicals were purchased from Sigma-Aldrich (St. Louis, MO).
Recombinant human KHKC proteins: Recombinant human KHKC was produced using the Profinity eXact fusion-tag system (Bio-Rad Laboratories, Hercules, CA). RNA were isolated from Hep G2 cells. CDNA was generated using 1 μg of RNA (iScript cDNA synthesis kit, Bio-Rad Laboratories). The coding sequences of KHKC were amplified using iProof high-fidelity DNA polymerase (Bio-Rad Laboratories). The following primers were used: forward primer = 5’…[…]…3’ and reverse primer = 5’…[…]…3’. The amplicons were ligated into pPAL8, a bacterial expression vector. Sequencing, performed by Beckman Coulter Genomics (Danvers, MA), confirmed that the coding sequences of the KHKC clones were a match to the National Center for Biotechnology Information’s reference sequence. The clones were transformed into BL21 (DE3) chemi-competent expression cells (Bio-Rad Laboratories). E. coli cultures were grown at 37°C in terrific broth media containing 100 μg/mL ampicillin. When the cell density (OD600) reached 0.5–0.7, the expression of KHKC was induced by adding 1 mM isopropyl β-D-1-thiogalactopyranoside. After 3–4 hr incubation, the growth culture was centrifuged at 5,000 g for 10 min at 4°C and the pellet was stored at -80°C.
For protein purification, the bacterial cell pellet was lysed using B-PER in phosphate buffer (Thermo Fisher Scientific Inc., Rockford, IL) containing AEBSF protease inhibitor (EMD Chemicals, Gibbstown, NJ). The lysate was centrifuged at 30,000 x g for 30 min at 4°C to remove cell debris. The supernatant was filtered using a […] syringe filter and then loaded (2.5 mL/min) onto the Bio-Scale Mini Profinity eXact cartridges using the Profinia protein purification instrument (Bio-Rad Laboratories). The column was first washed with 100 mL sodium phosphate, pH 7.0 (10 ml/min, CV = 10) followed by 400 mL sodium phosphate, pH 7.0 (10 ml/min, CV = 15). The protein was eluted with 100 mM sodium phosphate and 100 mM sodium fluoride, pH 7.2 and incubated for 4 hr at 4°C. The tag-less protein was stored in 20% glycerol and frozen at -80°C until use.
GraphPad Prism 5.03 (GraphPad Software, La Jolla, CA) was utilized for the data and statistical analyses. To generate a best fit, an upper concentration (10,000 μg/mL at 100% inhibition) and a lower concentration (0.001 μg/mL at 0% inhibition) were added in order to calculate the IC50s for the inhibition of KHKC and for the inhibition of fructose-induced ATP depletion. […]

[1] = phytochemical library screen, 50 μM, 1 mM fructose
[2] = phytochemicals, dose response 0.05 to 100 μM, read-out: KHKC IC50

Compound	KHKC Inhibition (%) [1] [%]	IC50 [2] [µM]	inhibition at 50 µM [1] [%]	IC50 [µM]	inhibition at 50 µM [%]
3,4',5,7-THMethoxy3'-O-B-D-Xylopyranoside	63.3	3.5	–	–	–
COc1cc(OC)c2ccc(=O)oc2c1CC=C(C)C [5,7-Dimethoxy-8-prenylcoumarin]	–	10.3	70.4	–	–
O=C(O)[C@H]1O[C@@H](Oc2cc(O)c3c(=O)cc(-c4ccc(O)cc4)oc3c2)[C@H](O)[C@@H](O)[C@@H]1O [Apigenin 7-glucuronide]	53.1	16.1	–	–	–
O=c1cc(-c2ccc(O)cc2)oc2cc(O[C@@H]3O[C@H](CO)[C@@H](O)[C@H](O)[C@H]3O[C@@H]3OC[C@](O)(CO)[C@H]3O)cc(O)c12 [Apiin]	–	21.5	47	–	–
COc1c(O)cc2c(=O)c3c(O)cc(O)c(CC=C(C)C)c3oc2c1CC=C(C)C [Cratoxyarborenone E]	–	1	61.7	–	–
CC(C)=CCc1c(O)ccc(C(=O)/C=C/c2ccc(O)cc2)c1O [Isobavachalcone]	–	5.7	44.2	–	–
CC(C)=CCc1c(-c2ccc(O)cc2O)oc2c(CC=C(C)C)c(O)cc(O)c2c1=O [Mulberrin]	61.2	31.2	–	–	–
COc1c(O)cc2oc(-c3ccccc3)cc(=O)c2c1O [Oroxylin A]	–	8.2	42.1	–	–
CC(C)=CCc1c(O)ccc2ccc(=O)oc12 [Osthenol]	–	–	–	7.8	74.1
COc1ccc2ccc(=O)oc2c1CC=C(C)C [Osthole]	–	0.7	93.4	–	–
Flavaspidic acid AB	48.7	29.5	–	–	–
Methoxy isobavachalcone	70.8	0.2	–	–	–
Swietenocoumarin B	62.5	58.4	–	–	–
α-/γ-Mangostin	90.4	1.5	–	–	–
